Laboratory results published in PMC10435442, “Developing multitarget coumarin based anti-breast cancer agents: synthesis and molecular modeling study” (Scientific Reports, 2023).
Values after ≈ are worked out from the molar mass of the structure shown. Values joined by “and” are separate entries in the source; they are usually repeats but may differ in a detail not shown here. Equal values may be shown once. Read-outs that look alike come from different tables or passages of the source.

Assays:
[1] = tested on: Bcl-2; assay: Bcl-2 level (ELISA) in treated cells; type: cell-based, human
[2] = tested on: Caspase-9; assay: Caspase-9 level (ELISA) in treated cells; type: cell-based, human
[3] = tested on: Bax; assay: Bax level (ELISA) in treated cells; type: cell-based, human; details: MDA
[4] = tested on: MCF-10A; assay: MTT cytotoxicity assay, nonmalignant MCF-10A; details: read-out: MCF-10A IC50; MTT, nonmalignant MCF-10A;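 note: MTT assay with absorbance read at 570 nm after 48 h exposure of cells to serial compound concentrations at 37 °C, testing selectivity against nonmalignant versus cancer cells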
[5] = in vitro; details: human, MCF-10A cells (nonmalignant breast)
[6] = tested on: MCF-7; assay: MTT cytotoxicity assay, MCF-7; details: for IC50: Homo sapiens; for anti-proliferative activity against MCF-7 (in words): SAR discussion
[7] = tested on: MDA-MB-231; assay: MTT cytotoxicity assay, MDA-MB-231; details: for IC50: Homo sapiens; for % viability: MDA; for anti-proliferative activity against MDA-MB-231 (in words): SAR discussion
[8] = target: EGFR (Homo sapiens, UniProt P00533); assay: In vitro EGFR enzyme inhibition assay (ELISA); details: for EGFR %inh: lab report 01-11-2021
[9] = MDA cells (MDA-MB-231), cont.MDA = 1
[10] = MCF7, read-out: cytotoxicity_IC50 mcf7
[11] = MDA-MB-231, read-out: MDA-MBA-231 IC50
[12] = MDA-MB-231, read-out: cytotoxicity_IC50 MDA
[13] = EGFR IC50, lab report 01-11-2021, 10 compounds

Sequence of EGFR (P00533 25-1210): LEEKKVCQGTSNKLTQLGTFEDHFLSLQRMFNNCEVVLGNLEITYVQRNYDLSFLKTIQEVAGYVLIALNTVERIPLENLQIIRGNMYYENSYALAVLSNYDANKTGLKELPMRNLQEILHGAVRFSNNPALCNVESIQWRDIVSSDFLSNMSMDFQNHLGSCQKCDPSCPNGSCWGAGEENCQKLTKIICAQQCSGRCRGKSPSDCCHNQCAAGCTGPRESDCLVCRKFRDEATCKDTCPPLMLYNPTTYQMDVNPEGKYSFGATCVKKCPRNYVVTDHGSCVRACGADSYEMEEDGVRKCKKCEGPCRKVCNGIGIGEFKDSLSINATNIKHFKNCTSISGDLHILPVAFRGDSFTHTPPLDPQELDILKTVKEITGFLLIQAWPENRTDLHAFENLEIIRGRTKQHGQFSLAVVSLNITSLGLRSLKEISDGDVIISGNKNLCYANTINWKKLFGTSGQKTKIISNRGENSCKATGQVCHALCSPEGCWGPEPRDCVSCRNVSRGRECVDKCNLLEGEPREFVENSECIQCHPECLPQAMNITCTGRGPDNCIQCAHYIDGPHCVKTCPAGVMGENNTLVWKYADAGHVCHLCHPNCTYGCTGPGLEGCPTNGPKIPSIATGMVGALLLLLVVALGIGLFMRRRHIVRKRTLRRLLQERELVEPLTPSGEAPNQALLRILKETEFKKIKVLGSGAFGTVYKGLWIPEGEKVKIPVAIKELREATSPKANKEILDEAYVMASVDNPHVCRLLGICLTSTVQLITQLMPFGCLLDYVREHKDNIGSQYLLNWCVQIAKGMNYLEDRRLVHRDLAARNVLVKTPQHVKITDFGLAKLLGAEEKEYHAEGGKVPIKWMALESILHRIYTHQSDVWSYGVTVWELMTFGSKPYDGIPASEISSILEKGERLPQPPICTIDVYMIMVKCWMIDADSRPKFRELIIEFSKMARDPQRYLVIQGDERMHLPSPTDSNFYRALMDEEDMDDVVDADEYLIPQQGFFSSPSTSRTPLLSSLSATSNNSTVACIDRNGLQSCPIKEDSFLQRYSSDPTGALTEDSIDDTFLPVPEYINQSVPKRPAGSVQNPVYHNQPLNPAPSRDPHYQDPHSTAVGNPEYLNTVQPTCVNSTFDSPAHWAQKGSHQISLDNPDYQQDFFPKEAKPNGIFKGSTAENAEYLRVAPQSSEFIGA

| IC50 at 48 h [5] [µg/mL] | IC50 [8, 13] [µM] | IC50 ([8]; EGFR inhibition IC50) [µM] | Percentage above Reference IC50 (potency relative to erlotinib) [8] [%] | Structure (SMILES) | IC50 [4] [µM] | viability at 48 h, 0.4 ug [5] [%] | viability at 48 h, 1.6 ug [5] [%] | viability at 48 h, 6.25 ug [5] [%] | viability at 48 h, 25 ug [5] [%] | viability at 48 h, 100 ug [5] [%] | IC50 ([6]; MCF7, read-out: MCF-7 IC50) [µM] | IC50 [6, 10] [µg/mL] | % viability ([6]; MCF7, 0.4ug) [%] | % viability ([6]; MCF7, 1.6ug) [%] | % viability ([6]; MCF7, 6.3ug) [%] | % viability ([6]; MCF7, 25ug) [%] | % viability ([6]; MCF7, 100ug) [%] | anti-proliferative activity against MCF-7 (in words) [6] | IC50 [7, 11] [µM] | IC50 [7, 12] [µg/mL] | further results |
| --- | --- | --- | --- | --- | --- | --- | --- | --- | --- | --- | --- | --- | --- | --- | --- | --- | --- | --- | --- | --- | --- |
| – | – | – | – | O=C(COc1ccc2c(COC(=O)c3ccc(Cl)cc3)cc(=O)oc2c1)c1ccc(Cl)cc1 [s10] | – | – | – | – | – | – | – | – | – | – | – | – | – | – | – | – | BCL2 conc. ([1]; MDA cells (MDA-MB-231) treated with the compound, cont.MDA 10.83±0.046): 4.088 ± 0.058 ng/mL; Bcl-2 Conc. (single wells) ([1]; MDA cells (MDA-MB-231), Bcl-2 ELISA, duplicate wells, control 10.83): 4.046 ng/mL and 4.129 ng/mL; Bcl-2 Conc. (Average) ([1]; MDA cells (MDA-MB-231), Bcl-2 ELISA, mean of 2 wells, control 10.83): 4.088 ng/mL; BCL2 FLD (fold vs control) [1, 9]: 0.377; Casp9 ([2]; MDA cells (MDA-MB-231) treated with the compound, cont.MDA 2.611±0.19): 16.77 ± 0.37 ng/mL; Caspase 9 Conc. (single wells) ([2]; MDA cells (MDA-MB-231), caspase9 ELISA, duplicate wells, control 4.084): 18.48 ng/mL and 17.62 ng/mL; Casp9 FLD (fold vs control) [2, 9]: 6.42; Bax Conc. (Average) ([3]; ELISA backfit, duplicate wells): 248.9 pg/mL; BAX ([3]; cell culture supernatant): 248.9 ± 7.88 pg/mL; BAX FLD ([3]; fold vs cont.MDA = 1): 3.6 |
| 56.6 ± 2.76 (≈ 156 µM) | 0.154 | 0.154 ± 0.008 | 54.545 | O=C(COc1ccc2c(CCl)cc(=O)oc2c1)c1ccc(Cl)cc1 [Compound 6, 4-(Chloromethyl)-7-(2-(4-chlorophenyl)-2-oxoethoxy)-2H-chromen-2-one] | 156 ± 2.76 | 78.1 | 70.4 | 62.2 | 54.8 | 46.8 | 217 ± 4.77 | 78.7 ± 4.77 | 87.56 | 78.06 | 71.906 | 59.463 | 45.972 | lower activity level | 56.6 ± 1.12 | 20.5 ± 1.12 | % viability ([7]; 0.4ug (log conc. -0.41)): 73.67%; % viability ([7]; 1.6ug (log conc. 0.19)): 63.08%; % viability ([7]; 6.25ug (log conc. 0.8)): 56.509%; % viability ([7]; 25ug (log conc. 1.4)): 49.4083%; % viability ([7]; 100ug (log conc. 2)): 41.124%; anti-proliferative activity against MDA-MB-231 (in words) [7]: lower activity level; EGFR %inh ([8]; conc 0.01 (unit not given)): 34%; EGFR %inh ([8]; conc 0.1 (unit not given)): 57%; EGFR %inh ([8]; conc 1 (unit not given)): 74%; EGFR %inh ([8]; conc 10 (unit not given)): 91% |
| 135 ± 6.56 (≈ 301 µM) | 0.131 | 0.131 ± 0.009 | 64.122 | O=C(COc1ccc2c(COC(=O)c3ccc(Cl)cc3)cc(=O)oc2c1)c1ccccc1 [Compound 9, [2-Oxo-7-(2-oxo-2-phenylethoxy)-2H-chromen-4-yl]methyl 4-chlorobenzoate] | 301 ± 6.56 | 90.6 | 79.6 | 70.3 | 61.8 | 52.3 | 100 ± 2.73 | 45 ± 2.73 | 77.17 | 70.74 | 62.232 | 54.2277 | 44.25 | diminished the activity | 10.4 ± 0.25 | 4.65 ± 0.25 | anti-proliferative activity against MDA-MB-231 (in words) [7]: poor anti-proliferative activity |

| Structure (SMILES) | IC50 at 48 h [5] [µg/mL] | IC50 [8, 13] [µM] | IC50 ([8]; EGFR inhibition IC50) [µM] | Percentage above Reference IC50 (potency relative to erlotinib) [8] [%] | IC50 [4] [µM] | viability at 48 h, 0.4 ug [5] [%] | viability at 48 h, 1.6 ug [5] [%] | viability at 48 h, 6.25 ug [5] [%] | viability at 48 h, 25 ug [5] [%] | viability at 48 h, 100 ug [5] [%] | IC50 ([6]; MCF7, read-out: MCF-7 IC50) [µM] | IC50 [6, 10] [µg/mL] | % viability ([6]; MCF7, 0.4ug) [%] | % viability ([6]; MCF7, 1.6ug) [%] | % viability ([6]; MCF7, 6.3ug) [%] | % viability ([6]; MCF7, 25ug) [%] | % viability ([6]; MCF7, 100ug) [%] | anti-proliferative activity against MCF-7 (in words) [6] | IC50 [7, 11] [µM] | IC50 [7, 12] [µg/mL] | further results |
| --- | --- | --- | --- | --- | --- | --- | --- | --- | --- | --- | --- | --- | --- | --- | --- | --- | --- | --- | --- | --- | --- |
| CC(=O)Oc1ccc2c(COC(=O)c3ccccc3)cc(=O)oc2c1 [Compound 13, (7-Acetoxy-2-oxo-2H-chromen-4-yl)methyl benzoate] | 166 ± 8.1 (≈ 491 µM) | 0.364 | 0.363 ± 0.02 | 23.14 | 490 ± 8.1 | 89.7 | 81.1 | 73.6 | 63.3 | 52.2 | 111 ± 2.28 | 37.6 ± 2.28 | 80.82 | 70.97 | 64.282 | 55.0733 | 40.88 | – | 30.7 ± 0.56 | 10.4 ± 0.56 | % viability ([7]; 0.4ug (log conc. -0.41)): 65.76%; % viability ([7]; 1.6ug (log conc. 0.19)): 58.55%; % viability ([7]; 6.25ug (log conc. 0.8)): 52.297%; % viability ([7]; 25ug (log conc. 1.4)): 46.9551%; % viability ([7]; 100ug (log conc. 2)): 38.515% |
